Measurements published in ChEMBL document CHEMBL3044836, “Synthesis, antimicrobial and cytotoxic activities of novel 4-trifluoromethyl-(1,2,3)-thiadiazolo-5-carboxylic acid hydrazide Schiffs bases” (Med Chem Res, 2013).
Values after ≈ are worked out from the molar mass of the structure shown.

Key:
Assay type in all cases: functional
[1] = tested on: Aspergillus niger; test: Antifungal activity against Aspergillus niger MTCC 1344 assessed as growth inhibition at 150 ug/ml after 48 hr by agar cup diffusion method; details: MTCC 1344, 48 h, read-out: DIZ
[2] = tested on: Aspergillus niger; test: Antifungal activity against Aspergillus niger MTCC 1344 assessed as growth inhibition at 100 ug/ml after 48 hr by agar cup diffusion method; details: MTCC 1344, 48 h, read-out: DIZ
[3] = tested on: Saccharomyces cerevisiae; test: Antifungal activity against Saccharomyces cerevisiae MTCC 36 assessed as growth inhibition at 150 ug/ml after 48 hr by agar cup diffusion method; details: MTCC 36, 48 h, read-out: DIZ
[4] = tested on: Saccharomyces cerevisiae; test: Antifungal activity against Saccharomyces cerevisiae MTCC 36 assessed as growth inhibition at 100 ug/ml after 48 hr by agar cup diffusion method; details: MTCC 36, 48 h, read-out: DIZ
[5] = tested on: Diutina rugosa; test: Antifungal activity against Candida rugosa NCIM 3462 assessed as growth inhibition at 150 ug/ml after 48 hr by agar cup diffusion method; details: NCIM 3462, 48 h, read-out: DIZ
[6] = tested on: Diutina rugosa; test: Antifungal activity against Candida rugosa NCIM 3462 assessed as growth inhibition at 100 ug/ml after 48 hr by agar cup diffusion method; details: NCIM 3462, 48 h, read-out: DIZ
[7] = tested on: Candida albicans; test: Antifungal activity against Candida albicans MTCC 227 assessed as growth inhibition at 150 ug/ml after 48 hr by agar cup diffusion method; details: MTCC 227, 48 h, read-out: DIZ
[8] = tested on: Candida albicans; test: Antifungal activity against Candida albicans MTCC 227 assessed as growth inhibition at 100 ug/ml after 48 hr by agar cup diffusion method; details: MTCC 227, 48 h, read-out: DIZ
[9] = tested on: Klebsiella pneumoniae; test: Antibacterial activity against Klebsiella pneumoniae assessed as growth inhibition by broth dilution method
[10] = tested on: Pseudomonas aeruginosa; test: Antibacterial activity against Pseudomonas aeruginosa MTCC 741 assessed as growth inhibition by broth dilution method
[11] = tested on: Staphylococcus aureus; test: Antibacterial activity against Staphylococcus aureus MTCC 96 assessed as growth inhibition by broth dilution method; details: read-out: MIC
[12] = tested on: Bacillus subtilis; test: Antibacterial activity against Bacillus subtilis MTCC 441 assessed as growth inhibition by broth dilution method
[13] = tested on: Staphylococcus epidermidis; test: Antibacterial activity against Staphylococcus epidermidis MTCC 435 assessed as growth inhibition by broth dilution method
[14] = tested on: Escherichia coli; test: Antibacterial activity against Escherichia coli MTCC 443 assessed as growth inhibition by broth dilution method
[15] = tested on: MCF7; test: Cytotoxicity against Homo sapiens (human) MCF7 cells assessed as cell viability at 10 uM after 48 hr by MTT assay relative to control; details: MCF7, 48 h, read-out: Activity
[16] = tested on: MDA-MB-231; test: Cytotoxicity against Homo sapiens (human) MDA-MB-231 cells assessed as cell viability at 10 uM after 48 hr by MTT assay relative to control; details: MDA-MB-231, 48 h, read-out: Activity

Structure (SMILES)	zone of inhibition at 150 µg/mL [1]	zone of inhibition at 100 µg/mL [2]	zone of inhibition at 150 µg/mL [3]	zone of inhibition at 100 µg/mL [4]	zone of inhibition at 150 µg/mL [5]	zone of inhibition at 100 µg/mL [6]	zone of inhibition at 150 µg/mL [7]	zone of inhibition at 100 µg/mL [8]	MIC ([10]; read-out: MIC)	MIC [11]	MIC [12]	MIC [13]	MIC ([14]; read-out: MIC)	viability at 10 µM [15]	viability at 10 µM [16]	MIC ([9]; read-out: MIC)	MIC ([12]; read-out: MIC)	MIC ([13]; read-out: MIC)	also measured
C/C(=N\NC(=O)c1snnc1C(F)(F)F)c1ccc([N+](=O)[O-])cc1	0 mm	0 mm	0 mm	0 mm	0 mm	0 mm	0 mm	0 mm	150 µg/mL (≈ 417 µM)	150 µg/mL (≈ 417 µM)	> 150 µg/mL	> 150 µg/mL	150 µg/mL (≈ 417 µM)	–	–	–	–	–	MIC [9]: > 150 µg/mL
C/C(=N\NC(=O)c1snnc1C(F)(F)F)c1ccc(Br)cc1Br	0 mm	0 mm	0 mm	0 mm	0 mm	0 mm	15 mm	11 mm	150 µg/mL (≈ 318 µM)	150 µg/mL (≈ 318 µM)	–	–	150 µg/mL (≈ 318 µM)	123%	94.7%	150 µg/mL (≈ 318 µM)	150 µg/mL (≈ 318 µM)	150 µg/mL (≈ 318 µM)	–
CC(C)=NNC(=O)c1snnc1C(F)(F)F	0 mm	0 mm	0 mm	0 mm	0 mm	0 mm	0 mm	0 mm	150 µg/mL (≈ 595 µM)	150 µg/mL (≈ 595 µM)	–	–	150 µg/mL (≈ 595 µM)	–	–	150 µg/mL (≈ 595 µM)	150 µg/mL (≈ 595 µM)	150 µg/mL (≈ 595 µM)	–
O=C(NN=C1CCCC1)c1snnc1C(F)(F)F	0 mm	0 mm	0 mm	0 mm	0 mm	0 mm	0 mm	0 mm	150 µg/mL (≈ 539 µM)	150 µg/mL (≈ 539 µM)	–	> 150 µg/mL	150 µg/mL (≈ 539 µM)	97.9%	84.2%	150 µg/mL (≈ 539 µM)	150 µg/mL (≈ 539 µM)	–	–
O=C(NN=C1CCCCC1)c1snnc1C(F)(F)F	0 mm	0 mm	0 mm	0 mm	0 mm	0 mm	7 mm	0 mm	–	150 µg/mL (≈ 513 µM)	–	–	150 µg/mL (≈ 513 µM)	97.2%	78.6%	150 µg/mL (≈ 513 µM)	150 µg/mL (≈ 513 µM)	150 µg/mL (≈ 513 µM)	MIC [10]: > 150 µg/mL
O=C(NN=C1CCCCCC1)c1snnc1C(F)(F)F	0 mm	0 mm	0 mm	0 mm	0 mm	0 mm	0 mm	0 mm	150 µg/mL (≈ 490 µM)	150 µg/mL (≈ 490 µM)	> 150 µg/mL	> 150 µg/mL	150 µg/mL (≈ 490 µM)	–	–	150 µg/mL (≈ 490 µM)	–	–	–
O=C(N/N=C/c1ccc(Cl)cc1)c1snnc1C(F)(F)F	0 mm	0 mm	0 mm	0 mm	0 mm	0 mm	0 mm	0 mm	150 µg/mL (≈ 448 µM)	150 µg/mL (≈ 448 µM)	> 150 µg/mL	> 150 µg/mL	–	–	–	150 µg/mL (≈ 448 µM)	–	–	MIC [14]: > 150 µg/mL
O=C(N/N=C/c1ccc(Br)cc1)c1snnc1C(F)(F)F	0 mm	0 mm	0 mm	0 mm	0 mm	0 mm	0 mm	0 mm	–	150 µg/mL (≈ 396 µM)	> 150 µg/mL	–	–	–	–	150 µg/mL (≈ 396 µM)	–	150 µg/mL (≈ 396 µM)	MIC [10]: > 150 µg/mL; MIC [14]: > 150 µg/mL
